This passage reports Bliss excess results from the supplement of paper PMC11061612.

Assay in all cases: Bliss excess, mean over the matrix (fraction); higher = more synergy
The subject of assay [1] is MRK-nu-1 (Breast Carcinoma). In outline:
(§1)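 Cell lines in DMEM/F12 or RPMI with 10% FBS were plated in 1536-well plates, held 24 hours at 37°C, 5% CO2, then given two-drug dose matrices for 72 hours (DMSO typically 0.2%). Viability was read by CellTiter-Glo 2.0 luminescence and scaled as inhibition from 0 (vehicle wells) to 1 (blank wells). Combination Emax is the second-highest inhibition in the matrix; Bliss excess is observed combination effect minus expected EA + EB − EA·EB, EA and EB being single-agent effects.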

Assay [2] deals with NCI-H1944 (Lung Adenocarcinoma). In outline: as §1
Assay [3] has as its system L-363 (Plasma Cell Myeloma). An outline of the steps: as §1
Assay [4] concerns BC-1 (B-Cell Non-Hodgkin's Lymphoma). An outline of the steps: as §1
In assay [5] the test system is NCI-H1648 (Lung Adenocarcinoma). An outline of the steps: as §1
The test system of assay [6] is Daudi (Burkitt's Lymphoma). In outline:
as §1

Assay [7] concerns GRANTA-519 (B-Cell Non-Hodgkin's Lymphoma). In outline: as §1
The subject of assay [8] is JJN-3 (Plasma Cell Myeloma). In outline: as §1
Assay [9] deals with SBC-5 (Small Cell Lung Carcinoma). An outline of the steps:
as §1

For assay [10], the system named is NCI-H2009 (Lung Adenocarcinoma). An outline of the steps:
as §1

Assay [11] concerns NCI-H2452 (Mesothelioma). An outline of the steps:
as §1

In assay [12] the test system is COR-L105 (Lung Adenocarcinoma). An outline of the steps: as §1
Assay [13] deals with RPMI-8402 (T-Lymphoblastic Leukemia). In outline:
as §1

For assay [14], the system named is HT-3 (Cervical Carcinoma). An outline of the steps: as §1
For assay [15], the system named is SBC-3 (Small Cell Lung Carcinoma). An outline of the steps: as §1
For assay [16], the system named is SK-N-DZ (Neuroblastoma). An outline of the steps:
as §1

Assay [17] deals with ATN-1 (T-Lymphoblastic Leukemia). An outline of the steps: as §1
Assay [18] deals with NCI-H1975 (Lung Adenocarcinoma). An outline of the steps: as §1
Assay [19] deals with C2BBe1 (Colorectal Carcinoma). In outline: as §1
Assay [20] deals with SUP-HD1 (Hodgkin's Lymphoma). In outline: as §1

On to `Cc1c2c(nn1C)CSCc1cc(n(C)n1)CSc1cc(c3ccccc3c1)OCCCc1c(C(=O)O)n(C)c3c-2c(Cl)ccc13` [AZD5991] + Cn1cnc2c(F)c(Nc3ccc(Br)cc3Cl)c(C(=O)NOCCO)cc21 [Selumetinib] (first compound max 1 µM, 7x7, partner max 3 µM), for which the Bliss excess amounted to 0.0052 in assay [1]; 0.027 in [2]; 0.0099 in [3]; 0.012 in assay [4]; 0.0396 in assay [5]; 0.0545 in assay [6]. The Bliss excess was -0.0162 in assay [7]; 0.0114 in assay [8]; 0 in [9]; 0.0176 in assay [10]; 0.0633 in assay [11]; -0.0263 in assay [12]. The Bliss excess in [13] was 0.0125; in assay [14] it was 0.0926; in assay [15] it was -0.0674; in assay [16] it was 0.018; in assay [17], -0.0672; in [18], 0.0208. For the same molecule, the Bliss excess in assay [19] was -0.0033; in [20] it was -0.011.
Consider `C[C@@H]1COCCN1c1cc(C2([S@](C)(=N)=O)CC2)nc(-c2ccnc3[nH]ccc23)n1` [AZD6738] + O=C(c1cc(Cc2n[nH]c(=O)c3ccccc23)ccc1F)N1CCN(C(=O)C2CC2)CC1 [Olaparib] (first compound max 10 µM, 7x7, partner max 10 µM), for which the Bliss excess in assay [1] is 0.0457; in assay [2], 0.0194; in assay [3], -0.0892; in assay [4], -0.0041; in assay [5], 0.0086; in assay [6], -0.0239. The Bliss excess is -0.0308 in [7]; -0.0548 in assay [8]; 0.0025 in assay [9]; 0.0046 in [10]; -0.0415 in assay [11]; -0.0435 in assay [12]. Besides, the Bliss excess is 0.013 in assay [13]; 0.0399 in [14]; -0.0328 in assay [15]; -0.0019 in assay [16]; 0.0169 in [17]; -0.0088 in assay [18]. In addition, the Bliss excess in assay [19] was 0.0009; in [20], -0.054.
As to `CS(=O)(=O)CCNCc1ccc(-c2ccc3ncnc(Nc4ccc(OCc5cccc(F)c5)c(Cl)c4)c3c2)o1` [Lapatinib] + C[C@@H](Oc1cc(-c2cnn(C3CCNCC3)c2)cnc1N)c1c(Cl)ccc(F)c1Cl [Crizotinib] (first compound max 10 µM, 7x7, partner max 10 µM), the Bliss excess in assay [1] is 0.0477; in assay [2], 0.015; in assay [3], -0.0208; in assay [4] it was -0.0557; in assay [5], 0.0036; in [6] it was -0.0179. For the same molecule, the Bliss excess was 0.0192 in [7]; -0.0287 in [8]; 0.0601 in assay [9]; -0.0506 in assay [10]; -0.0932 in assay [11]; -0.004 in assay [12]. For the same molecule, the Bliss excess is -0.0375 in assay [13]; -0.0357 in [14]; -0.0761 in assay [15]; -0.0702 in assay [16]; 0.0298 in assay [17]; -0.0428 in assay [18]. The Bliss excess was -0.018 in assay [19] and -0.0579 in assay [20].
On to `COc1nnc2ccc(N3CCC(c4ccc(OCCN5CCN(C)C(=O)[C@H]5C)cc4)CC3)nn12` [AZD5153] + Cn1cnc2c(F)c(Nc3ccc(Br)cc3Cl)c(C(=O)NOCCO)cc21 [Selumetinib] (first compound max 1 µM, 7x7, partner max 10 µM), for which the Bliss excess in [1] was -0.0169; in [2], -0.0008; in [3] it was 0.0188; in assay [4], -0.036; in [5], 0.0093; in assay [6] it was -0.059. Moreover, the Bliss excess in [7] is -0.0143; in assay [8] it was -0.0076; in [9], 0.001; in assay [10] it was -0.0123; in assay [11] it was -0.029; in [12], 0.0622. Besides, the Bliss excess in [13] is -0.0608; in [14], 0.0276; in [15], -0.0811; in assay [16], 0.0017; in assay [17] it was 0.0098; in assay [18], -0.0045. For the same molecule, the figures for the Bliss excess in assay [19] and in assay [20] were 0.0114 and -0.0019, respectively.
Regarding `CC(=O)c1c(C)c2cnc(Nc3ccc(N4CCNCC4)cn3)nc2n(C2CCCC2)c1=O` [Palbociclib] + CC1(C)CCC(CN2CCN(c3ccc(C(=O)NS(=O)(=O)c4ccc(NCC5CCOCC5)c([N+](=O)[O-])c4)c(Oc4cnc5[nH]ccc5c4)c3)CC2)=C(c2ccc(Cl)cc2)C1 [Venetoclax] (first compound max 10 µM, 7x7, partner max 1 µM), the Bliss excess in [1] was -0.0262; in [2], 0.0257; in [3] it was -0.0262; in assay [4], -0.0747; in assay [5] it was -0.0254; in [6], 0.0137. Further, the Bliss excess in assay [7] was 0.0884; in [8], -0.0357; in [9], 0.0178; in assay [10], -0.0543; in assay [11] it was -0.0188; in assay [12], -0.0399. Moreover, the Bliss excess is -0.0777 in assay [13]; -0.0529 in assay [14]; -0.038 in assay [15]; 0.0824 in assay [16]; 0.0869 in assay [17]; -0.0254 in assay [18]. For the same molecule, the results for the Bliss excess in [19] and in assay [20] were -0.0656 and -0.0641, respectively.
Consider `Cc1c2c(nn1C)CSCc1cc(n(C)n1)CSc1cc(c3ccccc3c1)OCCCc1c(C(=O)O)n(C)c3c-2c(Cl)ccc13` [AZD5991] + C=CCn1c(=O)c2cnc(Nc3ccc(N4CCN(C)CC4)cc3)nc2n1-c1cccc(C(C)(C)O)n1 [AZD1775] (first compound max 1 µM, partner max 1 µM), for which the Bliss excess is -0.0285 in assay [1]; -0.0472 in assay [2]; 0.0077 in [3]; -0.0314 in assay [4]; -0.0359 in [5]; -0.0124 in assay [6]. Also, the Bliss excess was -0.055 in assay [7]; -0.0331 in [8]; 0.0501 in assay [9]; -0.0051 in [10]; 0.0015 in assay [11]; -0.0025 in [12]. In addition, the Bliss excess in assay [13] is -0.0295; in [14], -0.0335; in assay [15] it was -0.0043; in assay [16] it was 0.0464; in assay [17] it was -0.0027; in [18], -0.0523. The Bliss excess in assay [19] was 0.0165; in [20], -0.106.
Consider `CN(C)CCCOc1ccc(-c2ccc3ncc4c(c3c2)n(C2CCOCC2)c(=O)n4C)cn1` [AZD0156] + C[C@@H]1COCCN1C2=NC(=NC(=C2)C3(CC3)[S@](=N)(=O)C)C4=C5C=CNC5=NC=C4 [AZD6738] (first compound max 1 µM, 7x7, partner max 10 µM), for which the Bliss excess is -0.0411 in assay [1]; 0.0062 in [2]; 0.0767 in assay [3]; -0.0305 in assay [4]; 0.005 in [5]; -0.0031 in assay [6]. Besides, the Bliss excess in assay [7] is -0.0335; in assay [8] it was 0.161; in assay [9], 0.0116; in [10], -0.0045; in [11], -0.0547; in [12], -0.0779. In addition, the Bliss excess is 0.0028 in assay [13]; 0.0031 in assay [14]; 0.0039 in assay [15]; 0.031 in [16]; -0.0052 in assay [17]; 0.0026 in assay [18]. In addition, the Bliss excess in assay [19] is -0.0234; in assay [20], -0.0232.
